In ChEMBL document CHEMBL4725292 (J Med Chem, 2020):
The source made the active and inactive calls. No cut-off for these calls is given here.

What was measured:
[1] = target: T1, Transcription intermediary factor 1-alpha (Homo sapiens, UniProt O15164); experiment: Binding affinity to human partial length TRIM24 (P790 to P977 residues) expressed in bacterial expression system by BROMOscan assay
T1 sequence (O15164 whole entry): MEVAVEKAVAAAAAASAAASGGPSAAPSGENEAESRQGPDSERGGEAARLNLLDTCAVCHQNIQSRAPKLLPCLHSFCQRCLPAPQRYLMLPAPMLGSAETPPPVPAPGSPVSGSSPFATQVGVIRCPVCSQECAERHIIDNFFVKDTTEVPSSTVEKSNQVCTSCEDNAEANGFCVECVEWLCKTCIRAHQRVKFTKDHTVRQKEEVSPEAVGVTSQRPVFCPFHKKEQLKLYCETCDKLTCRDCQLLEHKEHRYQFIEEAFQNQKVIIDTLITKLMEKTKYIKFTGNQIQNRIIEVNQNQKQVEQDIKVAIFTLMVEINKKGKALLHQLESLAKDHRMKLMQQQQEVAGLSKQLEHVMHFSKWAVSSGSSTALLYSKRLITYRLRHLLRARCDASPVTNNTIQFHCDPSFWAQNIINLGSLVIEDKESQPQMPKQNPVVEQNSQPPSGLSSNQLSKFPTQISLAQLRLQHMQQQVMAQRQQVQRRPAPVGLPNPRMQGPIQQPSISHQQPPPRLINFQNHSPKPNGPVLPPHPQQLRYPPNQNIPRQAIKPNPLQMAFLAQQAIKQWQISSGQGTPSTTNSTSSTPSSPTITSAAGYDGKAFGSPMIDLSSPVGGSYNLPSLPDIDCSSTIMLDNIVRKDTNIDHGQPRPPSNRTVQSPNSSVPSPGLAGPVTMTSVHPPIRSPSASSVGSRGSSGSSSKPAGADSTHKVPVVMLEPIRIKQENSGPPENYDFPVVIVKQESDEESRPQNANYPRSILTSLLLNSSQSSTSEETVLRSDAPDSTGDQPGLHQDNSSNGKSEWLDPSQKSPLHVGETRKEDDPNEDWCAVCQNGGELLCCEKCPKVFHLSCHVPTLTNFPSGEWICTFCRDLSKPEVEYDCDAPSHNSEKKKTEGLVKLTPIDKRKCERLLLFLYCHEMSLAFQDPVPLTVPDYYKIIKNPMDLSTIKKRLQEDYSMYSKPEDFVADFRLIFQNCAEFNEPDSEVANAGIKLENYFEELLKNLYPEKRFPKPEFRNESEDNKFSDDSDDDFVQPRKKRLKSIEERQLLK

[2] = target: T2, Bromodomain-containing protein 3 (Homo sapiens, UniProt Q15059); experiment: Binding affinity to human partial length BRD3 bromodomain 2 (G306 to P416 residues) expressed in bacterial expression system by BROMOscan assay
T2 sequence (Q15059 whole entry, the tested form may be a part): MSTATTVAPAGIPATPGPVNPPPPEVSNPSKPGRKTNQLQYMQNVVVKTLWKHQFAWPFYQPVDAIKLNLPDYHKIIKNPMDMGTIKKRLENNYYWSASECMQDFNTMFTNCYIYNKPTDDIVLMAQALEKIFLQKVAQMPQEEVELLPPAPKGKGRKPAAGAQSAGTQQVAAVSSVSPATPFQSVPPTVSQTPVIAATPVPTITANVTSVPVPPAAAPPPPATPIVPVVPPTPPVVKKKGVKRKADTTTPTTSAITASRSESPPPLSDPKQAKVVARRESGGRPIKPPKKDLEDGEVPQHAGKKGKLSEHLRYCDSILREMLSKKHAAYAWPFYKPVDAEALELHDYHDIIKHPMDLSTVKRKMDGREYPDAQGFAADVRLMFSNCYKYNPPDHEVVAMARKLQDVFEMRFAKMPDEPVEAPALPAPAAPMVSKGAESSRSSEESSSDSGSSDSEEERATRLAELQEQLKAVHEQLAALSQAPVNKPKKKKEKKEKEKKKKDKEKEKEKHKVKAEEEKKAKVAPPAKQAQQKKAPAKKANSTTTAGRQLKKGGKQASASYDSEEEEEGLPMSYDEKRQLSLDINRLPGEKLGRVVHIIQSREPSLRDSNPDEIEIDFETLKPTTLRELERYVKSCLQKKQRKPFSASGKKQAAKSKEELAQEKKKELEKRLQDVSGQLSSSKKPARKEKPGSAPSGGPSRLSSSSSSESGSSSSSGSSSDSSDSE

[3] = target: Bromodomain testis-specific protein (Homo sapiens, UniProt Q58F21); experiment: Binding affinity to full length BRDT BD2 in human HuT78 cell lysates incubated for 45 mins by liquid chromatography-mass spectrometry based chemoproteomic binding assay; assay type: subcellular
[4] = system: THP-1; experiment: Antiproliferative activity against human THP-1 cells after 72 hrs by cell titer glo assay; assay type: functional, cell-based; conditions: THP-1, 72 h
[5] = system: Blood; experiment: Inhibition of LPS-induced TNFalpha production in human whole blood preincubated for 30 mins followed by LPS addition and measured after overnight incubation by mesoscale assay; assay type: functional, tissue-based
[6] = target: Protein polybromo-1 (Homo sapiens, UniProt Q86U86); experiment: Binding affinity to human partial length PBRM1 bromodomain 5 (S645 to D766 residues) expressed in bacterial expression system by BROMOscan assay
Protein polybromo-1, sequence (Q86U86 whole entry, the tested form may be a part): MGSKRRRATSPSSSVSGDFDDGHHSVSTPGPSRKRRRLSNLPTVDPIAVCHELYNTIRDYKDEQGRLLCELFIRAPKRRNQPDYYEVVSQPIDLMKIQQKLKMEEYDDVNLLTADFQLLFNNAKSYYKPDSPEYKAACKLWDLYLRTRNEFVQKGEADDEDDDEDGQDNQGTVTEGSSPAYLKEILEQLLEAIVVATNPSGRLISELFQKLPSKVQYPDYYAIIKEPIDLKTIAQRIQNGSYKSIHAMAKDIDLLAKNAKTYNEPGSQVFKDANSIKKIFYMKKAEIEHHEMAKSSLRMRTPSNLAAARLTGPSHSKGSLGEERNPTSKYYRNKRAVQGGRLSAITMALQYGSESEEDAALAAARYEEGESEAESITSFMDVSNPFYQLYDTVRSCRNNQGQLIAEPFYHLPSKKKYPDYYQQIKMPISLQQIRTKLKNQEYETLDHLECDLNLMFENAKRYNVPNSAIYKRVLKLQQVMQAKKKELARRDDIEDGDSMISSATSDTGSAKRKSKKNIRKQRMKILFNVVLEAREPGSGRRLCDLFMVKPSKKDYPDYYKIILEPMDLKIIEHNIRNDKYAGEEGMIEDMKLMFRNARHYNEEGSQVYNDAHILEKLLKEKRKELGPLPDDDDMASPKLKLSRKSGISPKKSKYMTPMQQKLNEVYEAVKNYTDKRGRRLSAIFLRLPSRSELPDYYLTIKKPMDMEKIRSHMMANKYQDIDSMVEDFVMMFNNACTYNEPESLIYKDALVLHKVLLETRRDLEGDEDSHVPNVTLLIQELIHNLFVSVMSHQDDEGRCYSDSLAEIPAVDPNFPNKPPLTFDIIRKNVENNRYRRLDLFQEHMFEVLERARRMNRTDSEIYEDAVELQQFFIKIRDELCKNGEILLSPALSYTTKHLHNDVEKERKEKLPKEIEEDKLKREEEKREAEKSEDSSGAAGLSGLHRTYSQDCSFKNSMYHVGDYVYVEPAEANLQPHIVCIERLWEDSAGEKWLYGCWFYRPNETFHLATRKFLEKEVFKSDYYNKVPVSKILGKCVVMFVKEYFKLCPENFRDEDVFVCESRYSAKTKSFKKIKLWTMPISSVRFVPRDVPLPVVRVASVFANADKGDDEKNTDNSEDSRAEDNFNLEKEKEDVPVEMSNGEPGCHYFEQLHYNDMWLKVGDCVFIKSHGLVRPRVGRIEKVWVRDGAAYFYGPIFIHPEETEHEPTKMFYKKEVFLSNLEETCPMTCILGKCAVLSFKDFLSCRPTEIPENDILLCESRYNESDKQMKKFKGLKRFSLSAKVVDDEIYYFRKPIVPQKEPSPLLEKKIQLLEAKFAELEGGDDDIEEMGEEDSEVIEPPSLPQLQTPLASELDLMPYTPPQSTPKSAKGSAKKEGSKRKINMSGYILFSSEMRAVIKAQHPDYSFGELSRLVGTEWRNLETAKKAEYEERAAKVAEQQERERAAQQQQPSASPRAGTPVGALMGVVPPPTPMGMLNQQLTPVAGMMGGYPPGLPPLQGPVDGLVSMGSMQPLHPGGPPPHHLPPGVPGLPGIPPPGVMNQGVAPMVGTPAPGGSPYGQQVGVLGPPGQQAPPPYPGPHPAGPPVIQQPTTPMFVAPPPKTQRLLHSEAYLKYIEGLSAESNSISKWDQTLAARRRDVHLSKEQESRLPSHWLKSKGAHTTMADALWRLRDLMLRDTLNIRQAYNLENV

[7] = target: T3, Bromodomain-containing protein 2 (Homo sapiens, UniProt P25440); experiment: Binding affinity to full length BRD2 BD1 in human HuT78 cell lysates incubated for 45 mins by liquid chromatography-mass spectrometry based chemoproteomic binding assay; assay type: subcellular
T3 sequence (P25440 whole entry, the tested form may be a part, canonical isoform): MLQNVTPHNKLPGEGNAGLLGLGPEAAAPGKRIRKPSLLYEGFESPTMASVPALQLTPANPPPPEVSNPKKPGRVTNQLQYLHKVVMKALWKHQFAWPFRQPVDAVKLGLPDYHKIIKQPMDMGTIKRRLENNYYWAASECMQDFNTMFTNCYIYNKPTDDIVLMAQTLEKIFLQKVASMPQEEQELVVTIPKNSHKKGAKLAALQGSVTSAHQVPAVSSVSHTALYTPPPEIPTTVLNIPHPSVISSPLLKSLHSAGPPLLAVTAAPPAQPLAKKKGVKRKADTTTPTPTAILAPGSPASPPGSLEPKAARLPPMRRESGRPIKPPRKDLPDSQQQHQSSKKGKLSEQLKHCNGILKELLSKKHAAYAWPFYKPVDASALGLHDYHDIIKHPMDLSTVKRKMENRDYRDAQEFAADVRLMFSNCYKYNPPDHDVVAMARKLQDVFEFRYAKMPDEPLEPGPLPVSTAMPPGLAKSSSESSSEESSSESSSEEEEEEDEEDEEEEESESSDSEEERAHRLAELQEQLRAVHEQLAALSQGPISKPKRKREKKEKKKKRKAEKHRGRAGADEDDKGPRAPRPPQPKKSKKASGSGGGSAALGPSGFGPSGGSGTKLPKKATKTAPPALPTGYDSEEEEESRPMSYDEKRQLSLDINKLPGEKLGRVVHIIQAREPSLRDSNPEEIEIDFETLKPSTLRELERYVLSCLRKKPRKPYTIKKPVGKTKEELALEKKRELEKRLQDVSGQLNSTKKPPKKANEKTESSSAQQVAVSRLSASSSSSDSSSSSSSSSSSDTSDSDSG

[8] = target: T3, Bromodomain-containing protein 2; experiment: Binding affinity to human partial length BRD2 bromodomain 1 long isoform (K71 to N194 residues) expressed in bacterial expression system by BROMOscan assay
[9] = target: Transcription initiation factor TFIID subunit 1-like (Homo sapiens, UniProt Q8IZX4); experiment: Binding affinity to human partial length TAF1L bromodomain 2 (Q1523 to D1654 residues) expressed in bacterial expression system by BROMOscan assay
[10] = Permeability of the compound in pH 7.4 phosphate buffer measured after 3 hrs by artificial membrane permeability assay based HPLC analysis; assay type: ADME; conditions: PAMPA, pH 7.4, read-out: permeability
[11] = target: T2, Bromodomain-containing protein 3; experiment: Binding affinity to full length BRD3 BD2 in human HuT78 cell lysates incubated for 45 mins by liquid chromatography-mass spectrometry based chemoproteomic binding assay; assay type: subcellular
[12] = system: Blood; experiment: Inhibition of LPS-induced IL6 production in human whole blood preincubated for 30 mins followed by LPS addition and measured after overnight incubation by mesoscale assay; assay type: functional, tissue-based
[13] = system: B cell; experiment: Downregulation of IL-2 secretion in human B cells cocultured with human PBMC at 0.37 to 10 uM preincubated for 1 hr followed by anti-IgM and TCR stimulation and measured after 84 hrs by ELISA; assay type: functional, cell-based; conditions: dose microM 0.37-10, time 1.0 hrs
[14] = target: Transcription initiation factor TFIID subunit 1 (Homo sapiens, UniProt P21675); experiment: Binding affinity to human partial length TAF1 bromodomain 2 (D1521 to D1656 residues) expressed in bacterial expression system by BROMOscan assay
Transcription initiation factor TFIID subunit 1, sequence (P21675 whole entry, the tested form may be a part): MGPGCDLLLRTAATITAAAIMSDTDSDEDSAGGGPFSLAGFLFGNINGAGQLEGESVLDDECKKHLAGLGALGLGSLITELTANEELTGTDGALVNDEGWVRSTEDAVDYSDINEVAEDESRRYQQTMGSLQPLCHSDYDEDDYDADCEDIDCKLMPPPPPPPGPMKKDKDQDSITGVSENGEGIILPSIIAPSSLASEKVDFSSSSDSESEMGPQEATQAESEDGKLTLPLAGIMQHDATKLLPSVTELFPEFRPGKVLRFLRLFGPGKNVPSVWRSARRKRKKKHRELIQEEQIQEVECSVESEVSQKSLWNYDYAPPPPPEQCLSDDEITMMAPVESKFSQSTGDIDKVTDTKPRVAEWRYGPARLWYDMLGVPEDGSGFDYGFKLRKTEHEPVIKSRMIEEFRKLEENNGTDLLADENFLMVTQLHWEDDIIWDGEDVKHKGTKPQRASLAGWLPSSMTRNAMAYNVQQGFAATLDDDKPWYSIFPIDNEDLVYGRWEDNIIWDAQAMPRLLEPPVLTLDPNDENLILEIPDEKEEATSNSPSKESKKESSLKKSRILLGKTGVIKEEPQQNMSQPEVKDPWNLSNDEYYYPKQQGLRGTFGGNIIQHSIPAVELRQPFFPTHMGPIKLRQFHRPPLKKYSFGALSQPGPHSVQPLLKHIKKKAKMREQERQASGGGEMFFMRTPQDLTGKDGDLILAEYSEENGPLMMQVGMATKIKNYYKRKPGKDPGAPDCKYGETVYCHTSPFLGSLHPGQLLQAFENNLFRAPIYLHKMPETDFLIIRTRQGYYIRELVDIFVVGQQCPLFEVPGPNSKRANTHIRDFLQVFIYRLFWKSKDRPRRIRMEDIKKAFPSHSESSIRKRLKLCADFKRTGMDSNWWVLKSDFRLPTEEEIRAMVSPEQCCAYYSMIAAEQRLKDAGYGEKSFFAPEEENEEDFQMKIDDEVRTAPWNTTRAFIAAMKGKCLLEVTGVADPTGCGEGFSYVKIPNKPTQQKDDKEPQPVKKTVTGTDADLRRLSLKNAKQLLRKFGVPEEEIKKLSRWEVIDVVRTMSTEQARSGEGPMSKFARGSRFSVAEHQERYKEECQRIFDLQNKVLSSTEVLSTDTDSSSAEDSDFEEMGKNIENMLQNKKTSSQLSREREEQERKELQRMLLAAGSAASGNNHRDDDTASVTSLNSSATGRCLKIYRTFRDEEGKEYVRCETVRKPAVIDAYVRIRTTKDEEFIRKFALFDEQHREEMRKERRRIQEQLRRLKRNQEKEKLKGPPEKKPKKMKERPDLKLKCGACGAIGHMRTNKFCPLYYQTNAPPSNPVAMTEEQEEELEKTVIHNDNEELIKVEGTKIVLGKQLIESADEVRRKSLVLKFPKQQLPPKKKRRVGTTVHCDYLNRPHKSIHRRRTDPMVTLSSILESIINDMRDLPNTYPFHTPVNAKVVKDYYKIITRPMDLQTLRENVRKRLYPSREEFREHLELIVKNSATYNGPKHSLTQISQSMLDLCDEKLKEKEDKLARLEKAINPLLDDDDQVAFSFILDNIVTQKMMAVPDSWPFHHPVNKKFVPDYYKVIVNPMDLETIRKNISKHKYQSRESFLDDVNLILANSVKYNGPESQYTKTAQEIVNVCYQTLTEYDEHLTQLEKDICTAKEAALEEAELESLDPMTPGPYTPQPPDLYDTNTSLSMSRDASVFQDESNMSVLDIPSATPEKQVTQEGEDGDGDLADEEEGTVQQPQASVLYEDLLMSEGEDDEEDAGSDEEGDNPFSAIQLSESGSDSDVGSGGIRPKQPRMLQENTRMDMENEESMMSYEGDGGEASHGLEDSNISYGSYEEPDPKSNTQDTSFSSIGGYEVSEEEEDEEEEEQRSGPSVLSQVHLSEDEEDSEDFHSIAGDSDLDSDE

Cc1cc2c(-c3ccco3)cnc(N[C@@H]3CCN(C)C[C@H]3C(=O)NC3CCCCC3)c2[nH]c1=O [GSK789]
Kd [1]: 20000 nM | Kd [2]: 20000 nM | Kd [3]: > 31600 nM | IC50 [4]: 158 nM | IC50 [5]: 870 nM | Kd [6]: 10000 nM | Kd [7]: 3.98 nM | Kd [8]: 20 nM | Kd [9]: 398 nM | Papp at 3 h [10]: 19 ×10⁻⁶ cm/s | Kd [11]: 6310 nM | IC50 [12]: 3550 nM | Activity [13]: Active | Kd [14]: 50.1 nM
